Results from ChEMBL document CHEMBL3045446, “In vitro antimicrobial and antimycobacterial activity of some chalcones and their derivatives” (2013).
Converted amounts (≈) assume the structure as drawn.

What was measured:
Type in all cases: functional
[1] = system: Mycobacterium tuberculosis; test: Antituberculosis activity against Mycobacterium tuberculosis H37Rv assessed as growth inhibition after 12 to 28 days by L-J MIC method; conditions: for MIC: Mycobacterium tuberculosis, H37Rv
Shigella flexneri [2] = test: Antimicrobial activity against Shigella flexneri MTCC1457 assessed as diameter of growth inhibition zone after 24 hr
Salmonella typhi [3] = test: Antimicrobial activity against Salmonella enterica subsp. enterica serovar Typhi MTCC 733 assessed as diameter of growth inhibition zone after 24 hr
Candida albicans [4] = test: Antimicrobial activity against Candida albicans MTCC 183 assessed as diameter of growth inhibition zone after 48 hr
Staphylococcus aureus [5] = test: Antimicrobial activity against Staphylococcus aureus MTCC 96 assessed as growth inhibition after 24 hr by agar streak dilution method; conditions: MTCC 96, 24 h
Bacillus cereus [6] = test: Antimicrobial activity against Bacillus cereus MTCC 430 assessed as growth inhibition after 24 hr by agar streak dilution method; conditions: MTCC 430, 24 h
Escherichia coli [7] = test: Antimicrobial activity against Escherichia coli MTCC 739 assessed as growth inhibition after 24 hr by agar streak dilution method; conditions: MTCC 739, 24 h
Aspergillus niger [8] = test: Antimicrobial activity against Aspergillus niger MTCC 282 assessed as diameter of growth inhibition zone after 48 hr
Proteus vulgaris [9] = test: Antimicrobial activity against Proteus vulgaris MTCC 1771 assessed as diameter of growth inhibition zone after 24 hr
Shigella flexneri [10] = test: Antimicrobial activity against Shigella flexneri MTCC1457 assessed as growth inhibition after 24 hr by agar streak dilution method; conditions: MTCC1457, 24 h
Klebsiella pneumoniae [11] = test: Antimicrobial activity against Klebsiella pneumoniae MTCC 109 assessed as growth inhibition after 24 hr by agar streak dilution method; conditions: MTCC 109, 24 h
Klebsiella pneumoniae [12] = test: Antimicrobial activity against Klebsiella pneumoniae MTCC 109 assessed as diameter of growth inhibition zone after 24 hr
Salmonella typhi [13] = test: Antimicrobial activity against Salmonella enterica subsp. enterica serovar Typhi MTCC 733 assessed as growth inhibition after 24 hr by agar streak dilution method; conditions: MTCC 733, 24 h
Aspergillus niger [14] = test: Antimicrobial activity against Aspergillus niger MTCC 282 assessed as growth inhibition after 48 hr by agar streak dilution method; conditions: MTCC 282, 48 h
Escherichia coli [15] = test: Antimicrobial activity against Escherichia coli MTCC 739 assessed as diameter of growth inhibition zone after 24 hr
Proteus vulgaris [16] = test: Antimicrobial activity against Proteus vulgaris MTCC 1771 assessed as growth inhibition after 24 hr by agar streak dilution method; conditions: MTCC 1771, 24 h
Aspergillus fumigatus [17] = test: Antimicrobial activity against Aspergillus fumigatus MTCC 343 assessed as growth inhibition after 48 hr by agar streak dilution method; conditions: MTCC 343, 48 h
Aspergillus clavatus [18] = test: Antimicrobial activity against Aspergillus clavatus MTCC 1323 assessed as growth inhibition after 48 hr by agar streak dilution method; conditions: MTCC 1323, 48 h
Staphylococcus aureus [19] = test: Antimicrobial activity against Staphylococcus aureus MTCC 96 assessed as diameter of growth inhibition zone after 24 hr
Bacillus cereus [20] = test: Antimicrobial activity against Bacillus cereus MTCC 430 assessed as diameter of growth inhibition zone after 24 hr
Candida albicans [21] = test: Antimicrobial activity against Candida albicans MTCC 183 assessed as growth inhibition after 48 hr by agar streak dilution method; conditions: MTCC 183, 48 h
Pseudomonas aeruginosa [22] = test: Antimicrobial activity against Pseudomonas aeruginosa MTCC 741 assessed as diameter of growth inhibition zone after 24 hr
Aspergillus fumigatus [23] = test: Antimicrobial activity against Aspergillus fumigatus MTCC 343 assessed as diameter of growth inhibition zone after 48 hr
Pseudomonas aeruginosa [24] = test: Antimicrobial activity against Pseudomonas aeruginosa MTCC 741 assessed as growth inhibition after 24 hr by agar streak dilution method; conditions: MTCC 741, 24 h
Aspergillus clavatus [25] = test: Antimicrobial activity against Aspergillus clavatus MTCC 1323 assessed as diameter of growth inhibition zone after 48 hr

Structure (SMILES)	growth inhibition (GI) [1] [%]	MIC [1] [µg/mL]	diameter of the inhibition zone (DIZ) (Shigella flexneri [2]) [mm]	diameter of the inhibition zone (DIZ) (Salmonella typhi [3]) [mm]	diameter of the inhibition zone (DIZ) (Candida albicans [4]) [mm]	MIC (Staphylococcus aureus [5]) [µg/mL]	MIC (Bacillus cereus [6]) [µg/mL]	MIC (Escherichia coli [7]) [µg/mL]	diameter of the inhibition zone (DIZ) (Aspergillus niger [8]) [mm]	diameter of the inhibition zone (DIZ) (Proteus vulgaris [9]) [mm]	MIC (Shigella flexneri [10]) [µg/mL]	MIC (Klebsiella pneumoniae [11]) [µg/mL]	diameter of the inhibition zone (DIZ) (Klebsiella pneumoniae [12]) [mm]	MIC (Salmonella typhi [13]) [µg/mL]	MIC (Aspergillus niger [14]) [µg/mL]	diameter of the inhibition zone (DIZ) (Escherichia coli [15]) [mm]	MIC (Proteus vulgaris [16]) [µg/mL]	MIC (Aspergillus fumigatus [17]) [µg/mL]	MIC (Aspergillus clavatus [18]) [µg/mL]	diameter of the inhibition zone (DIZ) (Staphylococcus aureus [19]) [mm]	further results
CC(=O)N1N=C(c2ccc(Nc3cc(=O)oc4ccccc34)cc2)CC1c1ccccc1 (stereo not drawn)	95	1000 (≈ 2360 µM)	<10	13	12	100 (≈ 236 µM)	100 (≈ 236 µM)	100 (≈ 236 µM)	<10	13	100 (≈ 236 µM)	100 (≈ 236 µM)	11	100 (≈ 236 µM)	100 (≈ 236 µM)	<10	100 (≈ 236 µM)	100 (≈ 236 µM)	100 (≈ 236 µM)	<10	diameter of the inhibition zone (DIZ) (Bacillus cereus [20]): 13 mm; MIC (Candida albicans [21]): 100 µg/mL (≈ 236 µM); diameter of the inhibition zone (DIZ) (Pseudomonas aeruginosa [22]): 10 mm; diameter of the inhibition zone (DIZ) (Aspergillus fumigatus [23]): 13 mm; MIC (Pseudomonas aeruginosa [24]): 100 µg/mL (≈ 236 µM); diameter of the inhibition zone (DIZ) (Aspergillus clavatus [25]): 16 mm
CC(=O)N1N=C(c2ccc(Nc3cc(=O)oc4ccccc34)cc2)CC1c1ccccc1Br (stereo not drawn)	98	200 (≈ 398 µM)	14	15	21	100 (≈ 199 µM)	100 (≈ 199 µM)	100 (≈ 199 µM)	15	15	100 (≈ 199 µM)	100 (≈ 199 µM)	16	100 (≈ 199 µM)	100 (≈ 199 µM)	14	100 (≈ 199 µM)	50 (≈ 99.5 µM)	100 (≈ 199 µM)	16	diameter of the inhibition zone (DIZ) (Bacillus cereus [20]): 14 mm; MIC (Candida albicans [21]): 25 µg/mL (≈ 49.8 µM); diameter of the inhibition zone (DIZ) (Pseudomonas aeruginosa [22]): 12 mm; diameter of the inhibition zone (DIZ) (Aspergillus fumigatus [23]): 17 mm; MIC (Pseudomonas aeruginosa [24]): 100 µg/mL (≈ 199 µM); diameter of the inhibition zone (DIZ) (Aspergillus clavatus [25]): 14 mm
Nc1nc(-c2ccccc2)cc(-c2ccc(Nc3cc(=O)oc4ccccc34)cc2)n1	95	500 (≈ 1230 µM)	14	17	17	100 (≈ 246 µM)	100 (≈ 246 µM)	100 (≈ 246 µM)	17	15	100 (≈ 246 µM)	100 (≈ 246 µM)	15	50 (≈ 123 µM)	50 (≈ 123 µM)	14	100 (≈ 246 µM)	50 (≈ 123 µM)	25 (≈ 61.5 µM)	13	diameter of the inhibition zone (DIZ) (Bacillus cereus [20]): 15 mm; MIC (Candida albicans [21]): 50 µg/mL (≈ 123 µM); diameter of the inhibition zone (DIZ) (Pseudomonas aeruginosa [22]): 12 mm; diameter of the inhibition zone (DIZ) (Aspergillus fumigatus [23]): 19 mm; MIC (Pseudomonas aeruginosa [24]): 100 µg/mL (≈ 246 µM); diameter of the inhibition zone (DIZ) (Aspergillus clavatus [25]): 21 mm
